Earlier results, collected in patent EP2505189B1, “Stabilizing alkylglycoside compositions and method thereof” (Aegis Therapeutics, LLC, priority 2006, dated 2007).
Values belong to the compound of their own block, whether it stands above or below them.

What was measured:
[1] = in water
isolated nasal cilia = settings: in vitro, cilia from 15 human donors
[2] = Phase I, 1987-1990
[3] = system: HIV-related peripheral neuropathy; settings: in vivo

- CMC [1]: 1.8 mM
Compound: CCCCCCCCCCO[C@@H]1O[C@H](CO)[C@@H](O[C@H]2O[C@H](CO)[C@@H](O)[C@H](O)[C@H]2O)[C@H](O)[C@H]1O [Decyl maltoside]

- saccharine transport time (nasal mucosa; in vivo tests (Riechelmann 2004)): did not alter saccharine transport time
Compound: benzalkonium chloride [BAC]
- nasal irritation (nasal mucosa; 0.02% (Lange 2004)): no discernible negative effects whatsoever
- effect on the nasal mucosal function (nasal mucosa; 0.02% twice a day, two weeks of continual regular use (McMahon 1997)): no detectable effect on the nasal mucosal function
- damage to the nasal mucosa (nasal mucosa; prolonged use of topical formulations, 14 in vivo studies (Marple 2004)): no significant damage to the nasal mucosa
- effect on isolated nasal cilia (isolated nasal cilia): ciliotoxic

- CMC [1]: 19.5 mM
Compound: CCCCCCCCO[C@@H]1O[C@H](CO)[C@@H](O[C@H]2O[C@H](CO)[C@@H](O)[C@H](O)[C@H]2O)[C@H](O)[C@H]1O [Octyl maltoside]

- CMC [1]: 0.03 mM
Compound: CCCCCCCCCCCCCO[C@@H]1O[C@H](CO)[C@@H](OC2OC(CO)C(O)C(O)C2O)[C@H](O)[C@H]1O (stereo in doubt) [Tridecyl maltoside]

Continued, compound first:

Compound: C[C@@H](N)C(=O)N[C@@H](CO)C(=O)N[C@H](C(=O)N[C@H](C(=O)N[C@H](C(=O)N[C@@H](CC(N)=O)C(=O)N[C@@H](Cc1ccc(O)cc1)C(=O)N[C@H](C(N)=O)[C@@H](C)O)[C@@H](C)O)[C@@H](C)O)[C@@H](C)O [DAPTA, D-ala^1-Peptide T-amide]
- toxicity [2]: complete lack of toxicity
- adverse drug effects [3]: No adverse drug effects were noted

Compound: CCCCCCCCCCCCO[C@@H]1O[C@H](CO)[C@@H](O[C@H]2O[C@H](CO)[C@@H](O)[C@H](O)[C@H]2O)[C@H](O)[C@H]1O [Dodecyl β -D-maltoside]
- CMC [1]: 0.17 mM

Compound: CCCCCCCCCCCCCCO[C@@H]1O[C@H](CO)[C@@H](O[C@@H]2O[C@@H](CO)[C@H](O)[C@@H](O)[C@@H]2O)[C@H](O)[C@H]1O (stereo in doubt) [Tetradecyl maltoside]
- CMC [1]: 0.01 mM

Compound: Sucrose dodecanoate
- CMC [1]: 0.3 mM
